Test results taken from PubChem BioAssay AID330 (DTP/NCI, 2004).
“And” between values parts separate entries of the source, which are not always exact repeats. Equal values may be shown once. Toxic doses and inconclusive results are not listed. How the source made its calls: active means survival T/C of 150% or more; inactive means T/C below 125% in these data.

System: P388 leukemia ip, CD2F1 mice, survival T/C
Experiment: NCI In Vivo Anticancer Drug Screen. Data for tumor model P388 Leukemia (intraperitoneal) in CD2F1 (CDF1) mice
Settings: endpoint: median survival time, higher = longer survival
Outline: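 Mice carrying the transplanted tumor received test compound or vehicle. Survival was recorded in each group, and the value is the treated-group measurement divided by that of the vehicle-treated control group.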

[1] = dose: 50.0 mg/kg/injection, schedule: Q01DX009 (ip), vehicle: Klucel (hydroxypropylcellulose) (HPC)
[2] = dose: 100.0 mg/kg/injection, schedule: Q01DX009 (ip), vehicle: Klucel (hydroxypropylcellulose) (HPC)
[3] = dose: 200.0 mg/kg/injection, schedule: Q01DX009 (ip), vehicle: Klucel (hydroxypropylcellulose) (HPC)
[4] = dose: 60.0 mg/kg/injection, schedule: Q01DX005 (ip), vehicle: saline with Tween-80
[5] = dose: 120.0 mg/kg/injection, schedule: Q01DX005 (ip), vehicle: saline with Tween-80
[6] = dose: 240.0 mg/kg/injection, schedule: Q01DX005 (ip), vehicle: saline with Tween-80
[7] = dose: 100.0 mg/kg/injection, schedule: Q01DX001 (ip), vehicle: saline with Tween-80
[8] = dose: 200.0 mg/kg/injection, schedule: Q01DX001 (ip), vehicle: saline with Tween-80
[9] = dose: 60.0 mg/kg/injection, schedule: Q01DX005 (ip), vehicle: Klucel (hydroxypropylcellulose) (HPC)
[10] = dose: 120.0 mg/kg/injection, schedule: Q01DX005 (ip), vehicle: Klucel (hydroxypropylcellulose) (HPC)
[11] = dose: 240.0 mg/kg/injection, schedule: Q01DX005 (ip), vehicle: Klucel (hydroxypropylcellulose) (HPC)

Measured: T/C

CCOC(=O)C1CC(c2ccccc2)=NN1c1ccccc1 (stereo not drawn)
inactive: dose: 25.0 mg/kg/injection, schedule: Q01DX009 (ip), vehicle: Klucel (hydroxypropylcellulose) (HPC) 96 % of control | [1] 96 % of control | [2] 99 % of control | [3] 99 % of control | dose: 400.0 mg/kg/injection, schedule: Q01DX009 (ip), vehicle: Klucel (hydroxypropylcellulose) (HPC) 96 % of control

O=C(O)CN(CC(=O)O)Cc1cc(=O)[nH]c(=O)[nH]1
inactive: dose: 50.0 mg/kg/injection, schedule: Q01DX009 (ip), vehicle: saline 91 % of control | dose: 100.0 mg/kg/injection, schedule: Q01DX009 (ip), vehicle: saline 95 % of control | dose: 200.0 mg/kg/injection, schedule: Q01DX009 (ip), vehicle: saline 97 % of control

COc1cccc2c1C(=O)c1c(O)c3c(c(O)c1C2=O)CC(O)(C(C)=O)CC3OC1CC(NC(=O)CN(C)C)C(O)C(C)O1 (stereo not drawn)
inactive: dose: 0.25 mg/kg/injection, schedule: Q01DX009 (ip), vehicle: water 109 % of control | dose: 0.5 mg/kg/injection, schedule: Q01DX009 (ip), vehicle: water 120 % of control

CC1(C)CC2C[C@H]3CC[C@@H]4O[C@]34C2[C@H]1OC(=O)/C=C/c1ccccc1 (stereo partly drawn)
inactive: dose: 74.5 mg/kg/injection, schedule: Q01DX001 (ip), vehicle: saline with Tween-80 100 % of control | dose: 149.0 mg/kg/injection, schedule: Q01DX001 (ip), vehicle: saline with Tween-80 99 % of control | dose: 298.0 mg/kg/injection, schedule: Q01DX001 (ip), vehicle: saline with Tween-80 99 % of control

CC(C)c1cccc(C(C)C)c1NC(=O)OC1CCCCC1C (stereo not drawn)
inactive: [4] 94 % of control | [5] 90 % of control | [6] 98 % of control

CSc1nc2c(nnn2C2OCC(O)C(O)C2O)c(=O)[nH]1 (stereo not drawn)
inactive: [4] 93 % of control | [5] 93 % of control | [6] 86 % of control

O=C(COc1ccc(Cl)cc1Cl)Nc1ccccc1C(=O)c1ccccc1
inactive: dose: 50.0 mg/kg/injection, schedule: Q01DX009 (ip), vehicle: saline with Tween-80 101 % of control | dose: 100.0 mg/kg/injection, schedule: Q01DX009 (ip), vehicle: saline with Tween-80 101 % of control | dose: 200.0 mg/kg/injection, schedule: Q01DX009 (ip), vehicle: saline with Tween-80 94 % of control

OC1(C(F)(F)F)NN2C=CC=CC2=NO1 (stereo not drawn)
inactive: [4] 95 % of control | [5] 96 % of control | [6] 100 % of control

[CH3][Sn]([CH2]c1ccccc1)([CH2]c1ccccc1)[c]1ccccc1
inactive: dose: 100.0 mg/kg/injection, schedule: Q04DX003 (ip), vehicle: saline with Tween-80 98 % of control | dose: 200.0 mg/kg/injection, schedule: Q04DX003 (ip), vehicle: saline with Tween-80 105 % of control | dose: 400.0 mg/kg/injection, schedule: Q04DX003 (ip), vehicle: saline with Tween-80 100 % of control

CCOC(=O)CCC(NC(=O)c1ccc(I)cc1)C(=O)OCC (stereo not drawn)
inactive: [1] 100 % of control | [2] 93 % of control | [3] 102 % of control

COc1ccc2cc3[n+](cc2c1OC)CCc1cc2c(cc1-3)OCO2
inactive: dose: 1.25 mg/kg/injection, schedule: Q01DX009 (ip), vehicle: water 99 % of control and 110 % of control | dose: 2.5 mg/kg/injection, schedule: Q01DX009 (ip), vehicle: water 105 % of control | dose: 3.13 mg/kg/injection, schedule: Q01DX009 (ip), vehicle: Klucel (hydroxypropylcellulose) (HPC) 95 % of control | dose: 5.0 mg/kg/injection, schedule: Q01DX009 (ip), vehicle: water 110 % of control and 119 % of control | dose: 6.25 mg/kg/injection, schedule: Q01DX009 (ip), vehicle: Klucel (hydroxypropylcellulose) (HPC) 107 % of control | dose: 10.0 mg/kg/injection, schedule: Q01DX009 (ip), vehicle: water 110 % of control | dose: 12.5 mg/kg/injection, schedule: Q01DX009 (ip), vehicle: Klucel (hydroxypropylcellulose) (HPC) 109 % of control | dose: 20.0 mg/kg/injection, schedule: Q01DX009 (ip), vehicle: water 119 % of control

COC1=CC2C3C(=O)NC(=O)C3C1C1CC(C#N)C21OC (stereo not drawn)
inactive: [7] 104 % of control | [8] 114 % of control | dose: 400.0 mg/kg/injection, schedule: Q01DX001 (ip), vehicle: saline with Tween-80 107 % of control

CCCCN(CCCC)CC(O)c1ccc2cc(Cl)cc(Cl)c2n1 (stereo not drawn)
inactive: dose: 6.25 mg/kg/injection, schedule: Q01DX009 (ip), vehicle: saline with Tween-80 90 % of control | dose: 12.5 mg/kg/injection, schedule: Q01DX009 (ip), vehicle: saline with Tween-80 100 % of control | dose: 25.0 mg/kg/injection, schedule: Q01DX009 (ip), vehicle: saline with Tween-80 100 % of control

Cc1cccc(Cl)c1NC(=O)C(C)C
inactive: dose: 100.0 mg/kg/injection, schedule: Q04DX003 (ip), vehicle: other 104 % of control | dose: 200.0 mg/kg/injection, schedule: Q04DX003 (ip), vehicle: other 109 % of control | dose: 400.0 mg/kg/injection, schedule: Q04DX003 (ip), vehicle: other 90 % of control

CCOC(=O)c1ccc(NC(=S)P(=O)(c2ccccc2)c2ccccc2)cc1
inactive: [1] 88 % of control | [2] 89 % of control | [3] 94 % of control

CCC1COC(Nc2cccc3c2CCCC3)=N1 (stereo not drawn)
inactive: [7] 95 % of control | [8] 90 % of control

CC1=CC(=O)C(c2ccc(O)cc2O)=CC1=O
inactive: dose: 2.5 mg/kg/injection, schedule: Q01DX009 (ip), vehicle: saline with Tween-80 100 % of control | dose: 5.0 mg/kg/injection, schedule: Q01DX009 (ip), vehicle: saline with Tween-80 95 % of control | dose: 10.0 mg/kg/injection, schedule: Q01DX009 (ip), vehicle: saline with Tween-80 86 % of control

O=C1CCNC(=O)N1CN1CCc2ccccc2C1
inactive: [9] 108 % of control | [10] 99 % of control | [11] 108 % of control

C=C(C)c1cc(C(C)(C)C)cc(C(C)(C)O)c1S(C)(=O)=O
inactive: dose: 100.0 mg/kg/injection, schedule: Q04DX003 (ip), vehicle: Klucel (hydroxypropylcellulose) (HPC) 97 % of control | dose: 200.0 mg/kg/injection, schedule: Q04DX003 (ip), vehicle: Klucel (hydroxypropylcellulose) (HPC) 98 % of control | dose: 400.0 mg/kg/injection, schedule: Q04DX003 (ip), vehicle: Klucel (hydroxypropylcellulose) (HPC) 95 % of control

C1=C[N-]c2c3c(ccc2=C1)=CC=C[N-]3.C1=C[N-]c2c3c(ccc2=C1)=CC=C[N-]3.C1=C[N-]c2c3c(ccc2=C1)=CC=C[N-]3.[Co+3].[O-][Cl+3]([O-])([O-])O
inactive: dose: 7.5 mg/kg/injection, schedule: Q01DX005 (ip), vehicle: saline with Tween-80 98 % of control | dose: 15.0 mg/kg/injection, schedule: Q01DX005 (ip), vehicle: saline with Tween-80 98 % of control | dose: 30.0 mg/kg/injection, schedule: Q01DX005 (ip), vehicle: saline with Tween-80 104 % of control

CC12CCC(c3cn[nH]c31)C2(C)C (stereo not drawn)
inactive: [9] 100 % of control | [10] 100 % of control | [11] 100 % of control

Brc1cc2c(cc1C=Nc1ccc(OCc3ccccc3)cc1)OCO2
inactive: dose: 25.0 mg/kg/injection, schedule: Q01DX009 (ip), vehicle: other 98 % of control | dose: 50.0 mg/kg/injection, schedule: Q01DX009 (ip), vehicle: other 103 % of control | dose: 100.0 mg/kg/injection, schedule: Q01DX009 (ip), vehicle: other 97 % of control | dose: 200.0 mg/kg/injection, schedule: Q01DX009 (ip), vehicle: other 95 % of control | dose: 400.0 mg/kg/injection, schedule: Q01DX009 (ip), vehicle: other 86 % of control
